Experimental findings from ChEMBL document CHEMBL1131908 (Bioorg Med Chem Lett, 1999) are described below.

Test [1] has as its target T1, Mu-type opioid receptor (Rattus norvegicus, UniProt P33535). Put plainly: Ability to displace [3H]DAMGO from mu opioid receptor.
Test [2] deals with T2, Kappa-type opioid receptor (Cavia porcellus, UniProt P41144). Nature of the test: Ability to displace [3H]U-69593 from kappa opioid receptor.
The target of test [3] is Opioid receptors; mu & delta (Homo sapiens) (UniProt P41143+P35372). Put plainly: Ratio of binding affinities of mu and delta opioid receptors. The format is protein assay.
For test [4], the target named is T3, Delta-type opioid receptor (Rattus norvegicus, UniProt P33533). Put plainly: Ability to displace [3H]DADL from delta opioid receptor.
For test [5], the target named is T3, Delta-type opioid receptor. Nature of the test: Ability to inhibit binding of SNC80 to delta opioid receptor.
The target in test [6] is T1, Mu-type opioid receptor. Nature of the test: Ability to inhibit binding of [3H]DAMGO to mu opioid receptor.
Test [7] deals with T2, Kappa-type opioid receptor. Put plainly: Ability to inhibit binding of U-69,593 to kappa opioid receptor.

A word on the Ki: it is the equilibrium dissociation constant of an inhibitor or competing ligand from its target. A lower Ki goes with tighter binding.

T3 sequence (P33533 whole entry): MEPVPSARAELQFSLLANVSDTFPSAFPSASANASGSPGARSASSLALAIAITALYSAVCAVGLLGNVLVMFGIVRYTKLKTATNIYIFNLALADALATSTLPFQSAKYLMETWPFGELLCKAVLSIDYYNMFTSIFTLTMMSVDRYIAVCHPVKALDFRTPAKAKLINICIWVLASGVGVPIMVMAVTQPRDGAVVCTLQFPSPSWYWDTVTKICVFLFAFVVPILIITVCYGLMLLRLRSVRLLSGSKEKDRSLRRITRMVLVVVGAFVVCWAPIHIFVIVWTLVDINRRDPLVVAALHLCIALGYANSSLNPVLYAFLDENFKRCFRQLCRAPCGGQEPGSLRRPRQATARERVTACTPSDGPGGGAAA
T1 sequence (P33535 whole entry): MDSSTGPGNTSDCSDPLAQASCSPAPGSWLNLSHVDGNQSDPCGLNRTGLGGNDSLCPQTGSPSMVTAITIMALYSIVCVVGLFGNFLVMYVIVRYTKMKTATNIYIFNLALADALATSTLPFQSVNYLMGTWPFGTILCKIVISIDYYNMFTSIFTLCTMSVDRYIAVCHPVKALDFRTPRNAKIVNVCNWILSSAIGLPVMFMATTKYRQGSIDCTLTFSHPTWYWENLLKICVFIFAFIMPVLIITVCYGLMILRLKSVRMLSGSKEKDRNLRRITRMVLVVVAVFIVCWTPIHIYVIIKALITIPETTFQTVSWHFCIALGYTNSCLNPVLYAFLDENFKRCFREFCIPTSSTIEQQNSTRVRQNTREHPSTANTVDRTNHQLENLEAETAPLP
Chain of Opioid receptors; mu & delta (Homo sapiens) (P35372 whole entry, looked up): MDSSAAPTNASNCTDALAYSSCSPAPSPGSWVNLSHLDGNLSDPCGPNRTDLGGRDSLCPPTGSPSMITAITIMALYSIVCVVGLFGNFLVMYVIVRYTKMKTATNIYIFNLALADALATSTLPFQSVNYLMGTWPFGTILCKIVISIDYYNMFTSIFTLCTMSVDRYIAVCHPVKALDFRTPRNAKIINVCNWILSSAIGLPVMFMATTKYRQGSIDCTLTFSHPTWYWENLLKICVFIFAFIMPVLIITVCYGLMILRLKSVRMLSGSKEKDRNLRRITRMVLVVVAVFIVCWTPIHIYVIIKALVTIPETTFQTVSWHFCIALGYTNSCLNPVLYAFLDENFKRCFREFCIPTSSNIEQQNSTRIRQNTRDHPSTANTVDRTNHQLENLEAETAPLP
Chain of Opioid receptors; mu & delta (Homo sapiens) (P41143 whole entry, looked up): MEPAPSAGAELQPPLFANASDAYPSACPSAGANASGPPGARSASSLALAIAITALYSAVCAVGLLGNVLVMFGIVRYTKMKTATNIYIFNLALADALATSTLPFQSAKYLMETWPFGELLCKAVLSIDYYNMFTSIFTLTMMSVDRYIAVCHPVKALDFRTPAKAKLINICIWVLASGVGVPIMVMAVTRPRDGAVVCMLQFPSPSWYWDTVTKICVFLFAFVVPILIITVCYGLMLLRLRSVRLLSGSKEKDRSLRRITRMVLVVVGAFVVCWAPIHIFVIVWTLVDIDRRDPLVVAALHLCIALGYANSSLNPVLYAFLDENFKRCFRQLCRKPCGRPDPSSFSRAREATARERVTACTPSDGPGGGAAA
T2 sequence (P41144 whole entry): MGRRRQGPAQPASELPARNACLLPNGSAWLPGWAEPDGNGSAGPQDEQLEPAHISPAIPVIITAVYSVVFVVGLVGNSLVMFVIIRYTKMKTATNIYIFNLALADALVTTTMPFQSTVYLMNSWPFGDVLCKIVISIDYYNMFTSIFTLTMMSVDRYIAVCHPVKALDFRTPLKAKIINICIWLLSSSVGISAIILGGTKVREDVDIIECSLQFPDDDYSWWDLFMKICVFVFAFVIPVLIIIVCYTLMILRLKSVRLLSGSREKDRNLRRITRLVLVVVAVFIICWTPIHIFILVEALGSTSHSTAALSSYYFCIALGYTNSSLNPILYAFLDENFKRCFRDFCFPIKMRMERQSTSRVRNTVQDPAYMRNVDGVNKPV

On to `O[C@@]12Cc3c([nH]c4ccccc34)C3Oc4c(OCCc5ccccc5)ccc5c4[C@@]31CCN(CC1CC1)[C@@H]2C5` (some centres undefined), for which the Ki in test [1] is greater than 6250 nM; in test [2], greater than 7040 nM; in test [4], 1040 nM. The Ratio in test [3] is 7.

`O[C@@]12Cc3c([nH]c4ccccc34)C3Oc4c(OCc5ccccc5)ccc5c4[C@@]31CCN(CC1CC1)[C@@H]2C5` (some centres undefined): the inhibition constant Ki in test [1] stood at 396 nM; in test [2] it was 728 nM; in test [4] it was 103 nM. In addition, the Ratio in test [3] was 4.

For the compound `O[C@@]12Cc3c([nH]c4ccccc34)C3Oc4c(OCCCc5ccccc5)ccc5c4[C@@]31CCN(CC1CC1)[C@@H]2C5` (some centres undefined), the Ki in test [1] was greater than 6250 nM; in test [2], greater than 5320 nM; in test [4], 99 nM. Also, in test [3], the Ratio came out at 54.

As to `Oc1ccc2c3c1O[C@H]1c4[nH]c5ccccc5c4C[C@@]4(O)[C@@H](C2)N(CC2CC2)CC[C@]314` [NALTRINDOLE], in test [5], the affinity corresponds to a Ki of 0.062 nM.

Turning to `COc1ccc2c3c1OC1c4[nH]c5ccccc5c4C[C@@]4(O)[C@@H](C2)N(CC2CC2)CC[C@]314` (some centres undefined), the Ki stood at 2510 nM in test [1]; 411 nM in test [6]; 9 nM in test [5]; 3910 nM in test [2]; 1760 nM in test [7]; 6.57 nM in test [4].
